EP4516298A1, “STILBENE COMPOUNDS FOR USE IN THE TREATMENT AND PREVENTION OF INFECTIONS WITH CYTOMEGALOVIRUS (CMV)” (Szekeres, Thomas, priority 2023, dated 2025)

Key:
[1] = tested on: HCMV strain AD169; assay: Functional plaque reduction assay in HFF infected with human CMV; type: cell-based; conditions: for inhibition of CMV replication: plaque reduction assays in HFF treated with decreasing concentrations (Fig. 1-4)
Experimental: For the plaque reduction assay, HFF were seeded to 100 % confluency and then pre-treated with compound M8 at 8 different concentrations. HFF were subsequently infected with CMV strain AD169, washed and again incubated with two-fold dilutions of the compound. All experiments were done in triplicates (arrow bars show SEM). […] For the plaque reduction assay, HFF were seeded to 100 % confluency. The virus preparation of CMV strain AD169 was pretreated before infection of cells with compound M8 at 8 different concentrations. HFF were subsequently infected with CMV strain AD169, washed and again incubated with two-fold dilutions of the compound. All experiments were done in triplicates (arrow bars show SEM). […] For the plaque reduction assay HFF were seeded to 100 % confluency and subsequently infected with CMV strain AD169. Cells were washed thereafter and incubated with two-fold dilutions of the compound GCV. All experiments were done in triplicates (arrow bars show SEM). […] For the plaque reduction assay HFF were seeded to 100 % confluency and then pre-treated with compound RES at 8 different concentrations. HFF were subsequently infected with CMV strain AD169, washed and again incubated with two-fold dilutions of the compound. All experiments were done in triplicates (arrow bars show SEM).
HCMV strain AD169 was prepared as described previously (Rieder et al., J. Gen. Virol. 98 (2017), 471-485). For virus production, HFF were grown to confluence and subsequently infected with HCMV AD169 at a multiplicity of infection (MOI) of 0.01. The viral inoculum was replaced by culture medium after 90 min. Upon visibility of a total cytopathic effect (CPE) (usually 8-10 days post-infection), the viral supernatant was harvested and stored at - 80°C. After thawing, cell debris was removed by centrifugation at 3,000 g for 20 min. Infectivity of the viral inoculum was then measured using a plaque assay as described elsewhere (Britt, Curr. Protoc. Microbiol. (2010), 14E.3). […] Ganciclovir (Merck Millipore) was added at the indicated concentrations after removal of the inoculum. The cells were then overlaid with growth medium containing 0.5% low-melting point agarose. After solidification of the agarose layer, the plates were incubated for 10 days at 37°C in a CO2 incubator, then fixed with 2% formaldehyde and analysed for number of plaques after staining with 1:5 diluted Mayer's Hemalaun. Plaque numbers were normalized to the mean of DMSO-treated control samples. IC50 values were calculated with Graphpad Prism (dose-response inhibition).

[2] = tested on: HFF; assay: Toxicity of the compounds to HFF (inhibition of cellular metabolism); type: cell-based, human
[3] = treatment of HFF after CMV infection, CMV strain AD169
[4] = Human betaherpesvirus 5, AD169, cells (HFF) pretreated with compound for 90 min, CMV strain AD169, plaques counted after 10 days
[5] = cells (HFF) pretreated with compound, CMV strain AD169
[6] = virus pretreated with compound, CMV strain AD169

| IC50 [1, 4] | IC50 ([1]; Human betaherpesvirus 5, AD169, virus pretreated with compound for 90 min before infection of HFF, CMV strain AD169) | SMILES | inhibition of CMV replication [1] | concentration of complete inhibition [1, 3] | concentration of initial inhibitory effect [1, 3] | concentration at which some inhibition of CMV was noted [1, 5] | concentration of complete inhibition of CMV [1, 5] | concentration at which inhibition was noticed [1, 6] | concentration of maximum inhibition [1, 6] | concentration found to be toxic to the HFF [2] |
| --- | --- | --- | --- | --- | --- | --- | --- | --- | --- | --- |
| – | – | Nc1nc(O)c2ncn(COC(CO)CO)c2n1 [GCV, Ganciclovir, reference compound] | significant inhibition | ≥ 5 µM | 0.156 µM | – | – | – | – | – |
| ~37.5 µM | ~3 µM | Oc1cc(/C=C/c2cc(O)c(O)c(O)c2)cc(O)c1O [M8, 3,3',4,4',5,5'-hexahydroxy-trans-stilbene] | significant inhibition | – | – | 12.5 µM | 100 µM | 6.25 µM | 25 µM | > 100 µM |
| ~100 µM | – | Oc1ccc(C=Cc2cc(O)cc(O)c2)cc1 [RES, resveratrol, reference compound] | significant inhibition | – | – | 6.25 µM | – | – | – | > 100 µM |
